Ki and EC50 data for 4 molecules are collected here from patent US12252524B2, “GIP/GLP1 co-agonist compounds” (Eli Lilly and Company, priority 2018, dated 2025).

What is called Ki is a measure of affinity in units of concentration, obtained from inhibition or displacement. For orientation: EC50 means the concentration that produces a half-maximal response.

Numbered stars: 1 amine (or outer) side, 2 acyl side, 3 side chain; on linkers, the order of the positions; unused ones are H or OH. Square brackets hold non-standard residues; d marks the D form. Side chains are listed from the residue outwards. Peptide text beside a SMILES is read from it. * marks the point of attachment. C20 diacid = O=C(O)CCCCCCCCCCCCCCCCCCC(=O)*; C18 diacid = O=C(O)CCCCCCCCCCCCCCCCC(=O)*; αMePhe(2-F) = C[C@](N)(Cc1ccccc1F)C(=O)O; C16 diacid = O=C(O)CCCCCCCCCCCCCCC(=O)*; γGlu = O=C(O)[C@H](CCC(=O)[*:2])N[*:1]; αMeY = C[C@](N)(Cc1ccc(O)cc1)C(=O)O; αMeF = C[C@](N)(Cc1ccccc1)C(=O)O; αMeL = CC(C)C[C@](C)(N)C(=O)O; Orn = NCCC[C@H](N)C(=O)O; AEEA = NCCOCCOCC(=O)O; Aib = CC(C)(N)C(=O)O Where only a bound is given, the exact number is not on record here.

One experiment addresses T1, human Gcg receptor (Homo sapiens, UniProt P47871).
T1 construct: expressed in transfected cells; crude membranes
Description: [125I]-Glucagon binding (SPA), human Gcg receptor. To be noted: read-out: hGLcgR Ki, nM (SEM, n). In a few lines:
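Crude membranes from cells expressing the receptor, prepared by hypotonic lysis in 50 mM Tris HCl pH 7.5 with protease inhibitors, homogenization and differential centrifugation, were used in a WGA-bead SPA. Binding buffer: 25 mM HEPES pH 7.4, 2.5 mM CaCl2, 1 mM MgCl2, bacitracin, Tween-20.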

Another experiment deals with T2, human GIP receptor (Homo sapiens, UniProt P48546).
T2 construct: expressed in transfected cells; crude membranes
T2 sequence (P48546 22-466): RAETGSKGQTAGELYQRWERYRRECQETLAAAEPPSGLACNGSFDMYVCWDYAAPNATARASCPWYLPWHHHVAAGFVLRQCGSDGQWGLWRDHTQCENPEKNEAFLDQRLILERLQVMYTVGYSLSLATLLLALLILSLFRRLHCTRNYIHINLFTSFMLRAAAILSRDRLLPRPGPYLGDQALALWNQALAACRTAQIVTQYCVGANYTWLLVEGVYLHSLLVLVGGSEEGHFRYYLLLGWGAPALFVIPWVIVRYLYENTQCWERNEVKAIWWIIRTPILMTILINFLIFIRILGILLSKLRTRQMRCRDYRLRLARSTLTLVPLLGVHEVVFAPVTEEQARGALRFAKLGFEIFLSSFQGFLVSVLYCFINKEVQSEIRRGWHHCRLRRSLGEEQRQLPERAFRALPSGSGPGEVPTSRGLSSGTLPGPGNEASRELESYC
Description: [125I]-GIP binding (SPA), human GIP receptor. Conditions: read-out: hGIPR Ki, nM (SEM, n).

The target of experiment [1] is human GLP-1 receptor (GLP-1R) (Homo sapiens, UniProt P43220). Description: cAMP pharmacological functional assay in presence of casein, hGLP-1R. Type of experiment: cell-based. Conditions: HEK293 cells expressing hGLP-1R, 0.1% Casein, geometric mean; read-out: hGLP1R cAMP Rel EC50 nM (SEM, n).
Experiment [2] deals with T3, gastric inhibitory peptide receptor (GIPR) (Homo sapiens, UniProt P48546).
T3 sequence (P48546 22-466): T2 sequence (P48546 22-466)
Description: cAMP pharmacological functional assay in presence of casein, hGIPR. Type of experiment: cell-based. Conditions: HEK293 cells expressing hGIPR, 0.1% Casein, geometric mean; read-out: hGIPR cAMP Rel EC50 nM (SEM, n).

The target of a further experiment is human GLP-1R (Homo sapiens, UniProt P43220). In words: [125I]-GLP-1 binding (SPA), human GLP-1 receptor. Details: expressed in transfected cells; crude membranes. To be noted: read-out: hGLP1R Ki, (nM) (SEM, n). In a few lines: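 Ki values are geometric means with SEM over independent replicates on different days, derived from IC50s fitted by four-parameter nonlinear regression. The assay used crude cell membranes in HEPES buffer, pH 7.4, containing CaCl2, MgCl2, bacitracin and TWEEN-20.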
human GLP-1R, sequence (P43220 24-463): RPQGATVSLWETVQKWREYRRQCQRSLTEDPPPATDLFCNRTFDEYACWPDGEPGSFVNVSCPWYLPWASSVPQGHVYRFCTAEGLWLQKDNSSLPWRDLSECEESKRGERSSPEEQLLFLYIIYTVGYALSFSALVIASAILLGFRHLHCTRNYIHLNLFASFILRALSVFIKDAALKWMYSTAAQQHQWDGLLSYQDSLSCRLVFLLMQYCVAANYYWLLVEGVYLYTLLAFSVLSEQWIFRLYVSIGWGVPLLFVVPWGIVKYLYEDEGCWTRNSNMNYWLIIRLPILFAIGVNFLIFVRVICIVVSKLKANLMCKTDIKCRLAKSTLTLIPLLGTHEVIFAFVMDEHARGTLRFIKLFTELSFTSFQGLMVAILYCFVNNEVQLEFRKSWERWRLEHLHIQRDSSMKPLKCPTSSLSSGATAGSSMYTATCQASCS

human GLP-1 receptor (GLP-1R), sequence (P43220 24-463): as above
T1 sequence (P47871 26-477): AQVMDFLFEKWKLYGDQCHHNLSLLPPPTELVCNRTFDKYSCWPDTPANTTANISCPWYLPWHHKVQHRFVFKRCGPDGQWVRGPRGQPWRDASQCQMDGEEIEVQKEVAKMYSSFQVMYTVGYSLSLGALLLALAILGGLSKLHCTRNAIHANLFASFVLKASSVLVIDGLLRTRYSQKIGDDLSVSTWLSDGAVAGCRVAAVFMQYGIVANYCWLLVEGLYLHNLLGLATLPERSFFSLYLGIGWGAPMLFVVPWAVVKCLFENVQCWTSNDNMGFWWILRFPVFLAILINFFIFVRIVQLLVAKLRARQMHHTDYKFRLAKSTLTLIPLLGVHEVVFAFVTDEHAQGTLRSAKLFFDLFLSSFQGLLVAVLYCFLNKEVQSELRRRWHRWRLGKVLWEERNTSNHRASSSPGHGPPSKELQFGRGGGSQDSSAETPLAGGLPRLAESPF

Consider `CC[C@H](C)[C@H](NC(=O)[C@H](CC(C)C)NC(=O)[C@](C)(Cc1ccc(O)cc1)NC(=O)[C@@H](CCC(=O)O)NC(=O)[C@@H](NC(=O)[C@H](Cc1ccccc1)NC(=O)[C@H](C)NC(=O)C(C)(C)NC(=O)[C@H](CCC(N)=O)NC(=O)[C@H](C)NC(=O)[C@H](CCCCNC(=O)COCCOCCNC(=O)COCCOCCNC(=O)CC[C@H](NC(=O)CCCCCCCCCCCCCCCCC(=O)O)C(=O)O)NC(=O)[C@H](CCCN)NC(=O)[C@H](CC(=O)O)NC(=O)[C@H](CC(C)C)NC(=O)[C@](C)(CC(C)C)NC(=O)[C@@H](NC(=O)[C@H](CO)NC(=O)[C@H](C)NC(=O)[C@H](CC(=O)O)NC(=O)[C@H](CO)NC(=O)[C@@H](NC(=O)[C@](C)(Cc1ccccc1F)NC(=O)[C@@H](NC(=O)CNC(=O)[C@H](CCC(=O)O)NC(=O)C(C)(C)NC(=O)[C@@H](N)Cc1ccc(O)cc1)[C@@H](C)O)[C@@H](C)O)[C@@H](C)CC)[C@@H](C)CC)C(=O)N[C@@H](CCC(=O)O)C(=O)NCC(=O)NCC(=O)N1CCC[C@H]1C(=O)N[C@@H](CO)C(=O)N[C@@H](CO)C(=O)NCC(=O)N[C@@H](C)C(=O)N1CCC[C@H]1C(=O)N1CCC[C@H]1C(=O)N1CCC[C@H]1C(=O)N[C@@H](CO)C(N)=O` [Example 246] (H-Y[Aib]EGT[αMePhe(2-F)]TSDASI[αMeL]LD[Orn]K([AEEA-AEEA-γGlu-C18 diacid])AQ[Aib]AFI[dE][αMeY]LIEGGPSSGAPPPS-NH2), for which the inhibitory constant (Ki) on human Gcg receptor was more than 1010 nM; at human GIP receptor, 0.0509 nM; at human GLP-1R, 0.812 nM. The results for the EC50 in experiment [1] and in experiment [2] were 0.0144 nM and 0.0258 nM, respectively.

`CC[C@H](C)[C@H](NC(=O)[C@H](CC(C)C)NC(=O)[C@H](Cc1ccc(O)cc1)NC(=O)[C@H](CCC(=O)O)NC(=O)[C@@H](NC(=O)[C@H](Cc1ccccc1)NC(=O)[C@H](C)NC(=O)C(C)(C)NC(=O)[C@H](CCC(N)=O)NC(=O)[C@H](C)NC(=O)[C@H](CCCCNC(=O)COCCOCCNC(=O)COCCOCCNC(=O)CC[C@H](NC(=O)CCCCCCCCCCCCCCCCCCC(=O)O)C(=O)O)NC(=O)[C@H](CCCCN)NC(=O)[C@H](CC(=O)O)NC(=O)[C@H](CC(C)C)NC(=O)[C@H](CC(C)C)NC(=O)[C@@H](NC(=O)[C@H](CO)NC(=O)[C@H](Cc1c[nH]cn1)NC(=O)[C@H](CC(=O)O)NC(=O)[C@H](CO)NC(=O)[C@@H](NC(=O)[C@](C)(Cc1ccccc1)NC(=O)[C@@H](NC(=O)CNC(=O)[C@H](CCC(=O)O)NC(=O)C(C)(C)NC(=O)[C@@H](N)Cc1ccc(O)cc1)[C@@H](C)O)[C@@H](C)O)[C@@H](C)CC)[C@@H](C)CC)C(=O)N[C@@H](CCC(=O)O)C(=O)NCC(=O)NCC(=O)N1CCC[C@H]1C(=O)N[C@@H](CO)C(=O)N[C@@H](CO)C(=O)NCC(=O)N[C@@H](C)C(=O)N1CCC[C@H]1C(=O)N1CCC[C@H]1C(=O)N1CCC[C@H]1C(=O)N[C@@H](CO)C(N)=O` [Example 128] (H-Y[Aib]EGT[αMeF]TSDHSILLDKK([AEEA-AEEA-γGlu-C20 diacid])AQ[Aib]AFIEYLIEGGPSSGAPPPS-NH2): the Ki is 433 nM on human Gcg receptor, 0.0625 nM at human GIP receptor and 1.88 nM at human GLP-1R. Moreover, the figures for the EC50 in experiment [1] and in experiment [2] were 0.0924 nM and 0.0694 nM, respectively.

Regarding `CC[C@H](C)[C@H](NC(=O)[C@H](CCCCN)NC(=O)[C@H](CC(=O)O)NC(=O)[C@H](CC(C)C)NC(=O)[C@H](CC(C)C)NC(=O)[C@@H](NC(=O)[C@H](CO)NC(=O)[C@H](Cc1ccc(O)cc1)NC(=O)[C@H](CC(=O)O)NC(=O)[C@H](CO)NC(=O)[C@@H](NC(=O)[C@H](Cc1ccccc1)NC(=O)[C@@H](NC(=O)CNC(=O)[C@H](CCC(=O)O)NC(=O)C(C)(C)NC(=O)[C@@H](N)Cc1ccc(O)cc1)[C@@H](C)O)[C@@H](C)O)[C@@H](C)CC)C(=O)N[C@@H](C)C(=O)N[C@@H](CCC(N)=O)C(=O)NC(C)(C)C(=O)N[C@@H](C)C(=O)N[C@@H](Cc1ccccc1)C(=O)N[C@H](C(=O)N[C@@H](CCC(=O)O)C(=O)N[C@@H](Cc1ccc(O)cc1)C(=O)N[C@@H](CC(C)C)C(=O)N[C@H](C(=O)N[C@@H](CCC(=O)O)C(=O)NCC(=O)NCC(=O)N1CCC[C@H]1C(=O)N[C@@H](CCCCNC(=O)COCCOCCNC(=O)COCCOCCNC(=O)CC[C@H](NC(=O)CCCCCCCCCCCCCCCCCCC(=O)O)C(=O)O)C(=O)N[C@@H](CO)C(=O)NCC(=O)N[C@@H](C)C(=O)N1CCC[C@H]1C(=O)N1CCC[C@H]1C(=O)N1CCC[C@H]1C(=O)N[C@@H](CO)C(N)=O)[C@@H](C)CC)[C@@H](C)CC` [Example 41] (H-Y[Aib]EGTFTSDYSILLDKIAQ[Aib]AFIEYLIEGGPK([AEEA-AEEA-γGlu-C20 diacid])SGAPPPS-NH2), the inhibition constant Ki is 165 nM on human Gcg receptor, 0.0551 nM on human GIP receptor and 13.4 nM at human GLP-1R. For the same molecule, the EC50 amounted to 0.96 nM in experiment [1] and 0.229 nM in experiment [2].

On to `CC[C@H](C)[C@H](NC(=O)[C@H](CC(C)C)NC(=O)[C@H](Cc1ccc(O)cc1)NC(=O)[C@@H](CCC(=O)O)NC(=O)[C@@H](NC(=O)[C@H](Cc1ccccc1)NC(=O)[C@H](CCC(=O)O)NC(=O)C(C)(C)NC(=O)[C@H](CCC(N)=O)NC(=O)[C@H](C)NC(=O)[C@H](CCCCNC(=O)COCCOCCNC(=O)COCCOCCNC(=O)CC[C@H](NC(=O)CCCCCCCCCCCCCCC(=O)O)C(=O)O)NC(=O)[C@H](CCC(=O)O)NC(=O)[C@H](CC(=O)O)NC(=O)[C@H](CC(C)C)NC(=O)[C@](C)(CC(C)C)NC(=O)[C@@H](NC(=O)[C@H](CO)NC(=O)[C@H](Cc1ccc(O)cc1)NC(=O)[C@H](CC(=O)O)NC(=O)[C@H](CO)NC(=O)[C@@H](NC(=O)[C@](C)(Cc1ccccc1F)NC(=O)[C@@H](NC(=O)CNC(=O)[C@H](CCC(=O)O)NC(=O)C(C)(C)NC(=O)[C@@H](N)Cc1ccc(O)cc1)[C@@H](C)O)[C@@H](C)O)[C@@H](C)CC)[C@@H](C)CC)C(=O)N[C@@H](CCC(=O)O)C(=O)NCC(=O)NCC(=O)N1CCC[C@H]1C(=O)N[C@@H](CO)C(=O)N[C@@H](CO)C(=O)NCC(=O)N[C@@H](C)C(=O)N1CCC[C@H]1C(=O)N1CCC[C@H]1C(=O)N1CCC[C@H]1C(=O)N[C@@H](CO)C(N)=O` [Example 208] (H-Y[Aib]EGT[αMePhe(2-F)]TSDYSI[αMeL]LDEK([AEEA-AEEA-γGlu-C16 diacid])AQ[Aib]EFI[dE]YLIEGGPSSGAPPPS-NH2), for which the inhibition constant (Ki) at human Gcg receptor is more than 1060 nM; on human GIP receptor, 0.0537 nM; at human GLP-1R, 2.13 nM. For the same molecule, the half-maximal effective concentration (EC50) in experiment [1] came to 0.0753 nM; in experiment [2], 0.0371 nM.
